In this test the target is T1, αvβ3-integrin (Mus musculus, UniProt O54890+P43406).
T1 construct: purchased R&D Systems 7889-AV-050
T1 sequence (P43406 31-988 limits assumed): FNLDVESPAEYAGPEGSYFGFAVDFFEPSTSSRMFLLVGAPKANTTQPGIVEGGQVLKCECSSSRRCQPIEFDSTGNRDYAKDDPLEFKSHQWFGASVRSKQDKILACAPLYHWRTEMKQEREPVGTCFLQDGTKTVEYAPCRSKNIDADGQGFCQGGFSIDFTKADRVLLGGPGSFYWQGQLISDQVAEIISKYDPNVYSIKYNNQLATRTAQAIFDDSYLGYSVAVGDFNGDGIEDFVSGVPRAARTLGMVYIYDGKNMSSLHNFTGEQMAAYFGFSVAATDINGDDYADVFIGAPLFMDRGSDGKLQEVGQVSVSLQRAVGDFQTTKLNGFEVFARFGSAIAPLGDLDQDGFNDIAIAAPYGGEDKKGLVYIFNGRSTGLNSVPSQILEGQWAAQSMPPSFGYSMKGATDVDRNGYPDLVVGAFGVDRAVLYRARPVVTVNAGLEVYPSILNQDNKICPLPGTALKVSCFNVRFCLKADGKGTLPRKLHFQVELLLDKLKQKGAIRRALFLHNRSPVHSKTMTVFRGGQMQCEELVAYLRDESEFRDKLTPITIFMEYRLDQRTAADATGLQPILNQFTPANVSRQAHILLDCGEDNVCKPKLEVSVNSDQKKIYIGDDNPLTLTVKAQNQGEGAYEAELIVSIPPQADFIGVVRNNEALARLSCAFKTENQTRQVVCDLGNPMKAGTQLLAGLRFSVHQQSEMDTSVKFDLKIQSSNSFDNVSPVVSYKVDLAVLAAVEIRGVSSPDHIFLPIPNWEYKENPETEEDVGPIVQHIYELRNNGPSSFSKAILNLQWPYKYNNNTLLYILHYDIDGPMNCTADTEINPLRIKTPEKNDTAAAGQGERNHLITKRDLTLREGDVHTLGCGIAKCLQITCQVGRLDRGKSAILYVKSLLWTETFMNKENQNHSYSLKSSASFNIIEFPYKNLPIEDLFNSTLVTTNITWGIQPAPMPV
T1 sequence (O54890 26-717 limits assumed): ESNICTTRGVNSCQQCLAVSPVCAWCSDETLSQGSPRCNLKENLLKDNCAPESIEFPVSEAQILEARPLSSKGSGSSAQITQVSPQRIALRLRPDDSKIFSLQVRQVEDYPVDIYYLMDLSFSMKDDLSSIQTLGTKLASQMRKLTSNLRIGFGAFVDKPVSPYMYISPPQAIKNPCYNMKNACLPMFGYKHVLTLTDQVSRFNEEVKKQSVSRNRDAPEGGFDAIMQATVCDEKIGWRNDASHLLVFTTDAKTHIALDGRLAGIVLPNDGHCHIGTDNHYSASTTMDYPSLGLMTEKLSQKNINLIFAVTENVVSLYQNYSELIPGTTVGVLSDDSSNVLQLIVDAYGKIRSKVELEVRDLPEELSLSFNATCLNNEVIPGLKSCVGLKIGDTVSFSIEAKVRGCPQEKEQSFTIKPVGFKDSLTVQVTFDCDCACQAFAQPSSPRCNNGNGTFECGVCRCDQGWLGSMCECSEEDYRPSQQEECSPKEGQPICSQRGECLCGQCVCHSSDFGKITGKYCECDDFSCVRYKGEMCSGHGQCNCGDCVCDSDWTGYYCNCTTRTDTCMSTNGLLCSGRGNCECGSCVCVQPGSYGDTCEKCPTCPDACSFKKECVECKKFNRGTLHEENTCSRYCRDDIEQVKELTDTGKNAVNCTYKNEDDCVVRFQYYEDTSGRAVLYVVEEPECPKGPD
Nature of the test: Surface plasmon resonance binding to αvβ3-integrin. As to conditions: Example 2, Biacore; integrin analyte 31.25 to 125 nM; read-out: KD, binding to αvβ3-integrin receptor. The text has this: For Biacore experiments, recombinant murine (rm) CIRP was purchased from Cubasio Technology LLC (Cat #. CSB-EP613483He0), rmMFG-E8 was purchased from R&D Systems (Cat #2767-MF-050), and auß3-integrin was purchased from R&D Systems (Cat #7889-AV-050). For in vitro studies, recombinant human (rh)- and rmMFG-E8 and rmCIRP was produced by our lab as previously described (4). […] The known AA sequence of DD-2 (157 amino acids long) of murine MFG-E8 was split into ˜15 AA long sequences with a 5 AA long overlap. This portion of the peptide was designed to bind to eCIRP. The 15 AA sequences were then all tagged with three AA long, Arg-Gly-Asp (RGD), designed to bind to the integrin receptor. […] All peptides were screened in vitro for the ability to attenuate eCIRP-induced TNFα production. […]
To examine the direct interaction between rmCIRP and rmMFG-E8, surface plasmon resonance (SPR), OpenSPR (Nicoya), was performed between rmCIRP and rmMFG-E8. rmCIRP was immobilized on carboxyl sensor and rmMFG-E8 was injected as an analyte in concentrations of 15.7 nM to 250 nM. […] To evaluate binding, the analyte was injected into flow cell-1 and flow cell-2 and increasing concentrations and real-time interaction data were analyzed by TraceDrawer (Nicoya). […]

The structures appear in SMILES notation. Residues, ends and D or L forms follow the SMILES beside them.

As for `CC(C)C[C@H](NC(=O)[C@H](CC(N)=O)NC(=O)[C@H](Cc1c[nH]c2ccccc12)NC(=O)[C@@H](NC(=O)[C@H](CCCCN)NC(=O)[C@H](Cc1ccc(O)cc1)NC(=O)[C@H](CO)NC(=O)[C@H](CO)NC(=O)[C@H](CO)NC(=O)[C@H](CC(=O)O)NC(=O)CNC(=O)[C@@H](N)CCCNC(=N)N)[C@@H](C)O)C(=O)N[C@@H](CCCNC(=N)N)C(=O)N[C@@H](C)C(=O)N[C@@H](Cc1ccccc1)C(=O)NCC(=O)N[C@@H](Cc1c[nH]c2ccccc12)C(=O)N[C@@H](Cc1ccc(O)cc1)C(=O)O` [MOP3, RGDSSSYKTWNLRAFGWY] (H-RGDSSSYKTWNLRAFGWY-OH; N-terminus and C-terminus assumed), the Kd turned out to be 776 nM.

Source of the values: patent publication US20240197828A1, “Chimeric molecule to treat sepsis and other inflammatory conditions” (THE FEINSTEIN INSTITUTES FOR MEDICAL RESEARCH, priority 2022, published 2024).
